{
  "source": "PubChem BioAssay AID328",
  "about": "(DTP/NCI, 2004)",
  "key": {"[1]": {"system": "BDF1 mice, P388 leukemia ip", "assay": "NCI In Vivo Anticancer Drug Screen. Data for tumor model P388 Leukemia (intraperitoneal) in B6D2F1 (BDF1) mice", "conditions": "endpoint: mean survival time, schedule: Q01DX010 (ip), vehicle: carboxymethylcellulose (CMC), higher = longer survival", "summary_of_the_method": "(§1)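 T/C = treated-group survival ÷ vehicle-control survival; tumour transplanted into mice before dosing.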"}, "[2]": {"system": "BDF1 mice, P388 leukemia ip, median survival T/C", "assay": "NCI In Vivo Anticancer Drug Screen. Data for tumor model P388 Leukemia (intraperitoneal) in B6D2F1 (BDF1) mice", "conditions": "endpoint: median survival time, higher = longer survival", "summary_of_the_method": "as §1"}, "[3]": {"conditions": "dose: 25.0 mg/kg/injection, schedule: Q01DX009 (ip), vehicle: saline with Tween-80"}, "[4]": {"conditions": "dose: 50.0 mg/kg/injection, schedule: Q01DX009 (ip), vehicle: saline with Tween-80"}, "[5]": {"conditions": "dose: 100.0 mg/kg/injection, schedule: Q01DX009 (ip), vehicle: saline with Tween-80"}, "[6]": {"conditions": "dose: 200.0 mg/kg/injection, schedule: Q01DX009 (ip), vehicle: saline with Tween-80"}},
  "note": "Toxic doses and inconclusive results are not listed.",
  "data": [
    {"smiles": "CC(C)=CC(=O)C1C(=O)c2ccccc2C1=O", "values": [
      {"measurement": "T/C", "setting": "[1]; dose: 25.0 mg/kg/injection", "value": "93 % of control"},
      {"measurement": "T/C", "setting": "[1]; dose: 50.0 mg/kg/injection", "value": "101 % of control"},
      {"measurement": "T/C", "setting": "[1]; dose: 100.0 mg/kg/injection", "value": "101 % of control"},
      {"measurement": "T/C", "setting": "[1]; dose: 200.0 mg/kg/injection", "value": "96 % of control"}
    ]},
    {"smiles": "CC(C)(O)CCC(=O)C(C)(O)C1C(O)CC2(C)C3CC=C4C(CC(O)C(=O)C4(C)C)C3(C)C(=O)CC12C", "note": "(configuration not stated)", "values": [
      {"measurement": "T/C", "setting": "[2]; dose: 1.0 mg/kg/injection, schedule: Q01DX010 (ip), vehicle: carboxymethylcellulose (CMC)", "value": "121 % of control"},
      {"measurement": "T/C", "setting": "[2]; dose: 2.0 mg/kg/injection, schedule: Q01DX010 (ip), vehicle: carboxymethylcellulose (CMC)", "value": "121 % of control"},
      {"measurement": "T/C", "setting": "[2]; dose: 4.0 mg/kg/injection, schedule: Q01DX010 (ip), vehicle: carboxymethylcellulose (CMC)", "value": "121 % of control"},
      {"measurement": "T/C", "setting": "[1]; dose: 1.0 mg/kg/injection", "value": "97 % of control"},
      {"measurement": "T/C", "setting": "[1]; dose: 2.0 mg/kg/injection", "value": "86 % of control"}
    ]},
    {"smiles": "CCCCCCCCCCOP(=S)(N1CC1)N1CC1", "values": [
      {"measurement": "T/C", "setting": "[2]; dose: 12.5 mg/kg/injection, schedule: Q01DX009 (ip), vehicle: saline with Tween-80", "value": "108 % of control"},
      {"measurement": "T/C", "setting": "[2]; dose: 13.0 mg/kg/injection, schedule: Q04DX003 (ip), vehicle: saline with Tween-80", "value": "113 % of control"},
      {"measurement": "T/C", "setting": "[2]; dose: 20.0 mg/kg/injection, schedule: Q04DX003 (ip), vehicle: saline with Tween-80", "value": "152 % of control"},
      {"measurement": "T/C", "setting": "[2]; [3]", "value": "245 % of control"},
      {"measurement": "T/C", "setting": "[2]; dose: 33.0 mg/kg/injection, schedule: Q04DX003 (ip), vehicle: saline with Tween-80", "value": "169 % of control"},
      {"measurement": "T/C", "setting": "[2]; dose: 44.0 mg/kg/injection, schedule: Q04DX003 (ip), vehicle: saline with Tween-80", "value": "195 % of control"},
      {"measurement": "T/C", "setting": "[2]; [4]", "value": "183 % of control"},
      {"measurement": "T/C", "setting": "[2]; dose: 50.0 mg/kg/injection, schedule: Q04DX003 (ip), vehicle: saline with Tween-80", "value": "226 % of control"},
      {"measurement": "T/C", "setting": "[2]; dose: 67.0 mg/kg/injection, schedule: Q04DX003 (ip), vehicle: saline with Tween-80", "value": "272 % of control"},
      {"measurement": "T/C", "setting": "[2]; dose: 75.0 mg/kg/injection, schedule: Q04DX003 (ip), vehicle: saline with Tween-80", "value": "243 % of control"},
      {"measurement": "T/C", "setting": "[2]; dose: 100.0 mg/kg/injection, schedule: Q04DX003 (ip), vehicle: saline with Tween-80", "value": "272 % of control"},
      {"measurement": "T/C", "setting": "[2]; dose: 125.0 mg/kg/injection, schedule: Q04DX003 (ip), vehicle: saline with Tween-80", "value": "165 % of control"},
      {"measurement": "T/C", "setting": "[2]; dose: 150.0 mg/kg/injection, schedule: Q04DX003 (ip), vehicle: saline with Tween-80", "value": "272 % of control"}
    ]},
    {"smiles": "CS(=O)(=O)Nc1ccccc1-c1nc2ccccc2c(=O)o1", "values": [
      {"measurement": "T/C", "setting": "[2]; [3]", "value": "105 % of control"},
      {"measurement": "T/C", "setting": "[2]; [4]", "value": "104 % of control"},
      {"measurement": "T/C", "setting": "[2]; [5]", "value": "105 % of control"},
      {"measurement": "T/C", "setting": "[2]; [6]", "value": "103 % of control"}
    ]},
    {"smiles": "CCCCCCC#CC(=O)O", "values": [
      {"measurement": "T/C", "setting": "[2]; [4]", "value": "100 % of control"},
      {"measurement": "T/C", "setting": "[2]; dose: 50.0 mg/kg/injection, schedule: Q01DX009 (sc), vehicle: olive oil, sesame oil, peanut oil", "value": "96 % of control"},
      {"measurement": "T/C", "setting": "[2]; [5]", "value": "98 % of control"},
      {"measurement": "T/C", "setting": "[2]; dose: 100.0 mg/kg/injection, schedule: Q01DX009 (sc), vehicle: olive oil, sesame oil, peanut oil", "value": "96 % of control"},
      {"measurement": "T/C", "setting": "[2]; dose: 100.0 mg/kg/injection, schedule: Q04DX003 (sc), vehicle: olive oil, sesame oil, peanut oil", "value": "100 % of control"},
      {"measurement": "T/C", "setting": "[2]; [6]", "value": "116 % of control"},
      {"measurement": "T/C", "setting": "[2]; dose: 200.0 mg/kg/injection, schedule: Q01DX009 (sc), vehicle: olive oil, sesame oil, peanut oil", "value": "92 % of control"},
      {"measurement": "T/C", "setting": "[2]; dose: 200.0 mg/kg/injection, schedule: Q04DX003 (sc), vehicle: olive oil, sesame oil, peanut oil", "value": "96 % of control"}
    ]},
    {"smiles": "O=C1c2ccccc2C(=O)c2c(NCCSCCO)ccc(NCCSCCO)c21", "values": [
      {"measurement": "T/C", "setting": "[2]; dose: 25.0 mg/kg/injection, schedule: Q01DX009 (ip), vehicle: other", "value": "95 % of control"},
      {"measurement": "T/C", "setting": "[2]; dose: 50.0 mg/kg/injection, schedule: Q01DX009 (ip), vehicle: other", "value": "86 % of control"},
      {"measurement": "T/C", "setting": "[2]; dose: 100.0 mg/kg/injection, schedule: Q01DX009 (ip), vehicle: other", "value": "94 % of control"}
    ]}
  ]
}
